Reference: patent US20260285850A1, “SUBSTITUTED OXAZOLIDINONES AND IMIDAZOLINONES AS HERBICIDES” (FMC CORPORATION, priority 2023, published 2026)

Experiments:
Assay in all cases: Test B flooded paddy test, visual plant response rating 0-100
Format in all cases: in vivo
Conditions in all cases: 250 g ai/ha, Flood, applied to paddy water, evaluated after 13 days
[1] = system: rice (Oryza sativa)
Method: (§1) Plant species in the flooded paddy test selected from barnyardgrass (Echinochloa crusgalli), ducksalad (Heteranthera limosa), rice (Oryza sativa), and sedge, umbrella (small-flower umbrella sedge, Cyperus difformis) were grown to the 2-leaf stage for testing. At time of treatment, test pots were flooded to 3 cm above the soil surface, treated by application of test compounds directly to the paddy water, and then maintained at that water depth for the duration of the test. Treated plants and controls were maintained in a greenhouse for 13 days, after which time all species were compared to controls and visually evaluated. […] A dash (-) response means no test result.

[2] = system: barnyardgrass (Echinochloa crusgalli)
Method: as §1

[3] = system: ducksalad (Heteranthera limosa)
Method: as §1

[4] = system: sedge, umbrella (small-flower umbrella sedge, Cyperus difformis)
Method: as §1

SMILES | Plant response rating, Rice (0 to 100 scale, 0 is no effect and 100 is complete control) [1] | Plant response rating, Barnyardgrass (0 to 100 scale, 0 is no effect and 100 is complete control) [2] | Plant response rating, Ducksalad (0 to 100 scale, 0 is no effect and 100 is complete control) [3] | Plant response rating, Sedge, Umbrella (0 to 100 scale, 0 is no effect and 100 is complete control) [4]
COC(=O)C1CC(NC(=O)C2(C(F)(F)F)CN(c3cc(F)cc(F)c3)C(=O)O2)C1 (centres unmarked) [Compound 196] | 85 | 95 | 50 | 95
CC1(C(=O)NC2CC=C(C(=O)OCC3CC3)C2)CN(c2cc(Cl)cc(Cl)c2)C(=O)O1 (centres unmarked) [Compound 198] | 85 | 90 | 60 | 75
